Tests used:
Assay type in all cases: physicochemical
[1] = Dynamic Vapor Sorption (DVS) analysis; settings: for weight gained in DVS analysis: between 0-90% relative humidity, 25° C.
Description: Dynamic Vapor Sorption (DVS). DVS experiments were conducted on a Surface Measurement Systems DVS-HT at 25° C. The instrument was operated in step mode and the relative humidity was increased in 10% RH increments from 40% RH to 90% RH, then decreased from 90% RH to 0% RH, then increased from 0% RH to 90% RH, then decreased from 90% RH to 0% RH. An extra step at 75% RH was included in each cycle. The mass equilibrium criterion was set at 0.005% change in mass over time (dm/dt) prior to each humidity level. A minimum step time of 10 minutes and a maximum step time of 240 minutes were specified.

[2] = Physical (crystal form) stability on exposure to ambient conditions, relative humidity or elevated pressure; settings: for crystal form change on exposure to 75% relative humidity: 75% relative humidity for five days; for crystal form change on exposure to 97% relative humidity: 97% relative humidity for 5 days
Source text: (§1) Form 1 is a non-solvated, non-hygroscopic crystal.
Form 3 is a non-solvated and non-hygroscopic crystal.
Form 4 is a non-solvated crystal.

[3] = Milling at -196° C. and recrystallization
Source text: as §1

[4] = Stability of Form 1 to physical and chemical manipulation (Example 3)
Description: Form 1 is stable to lyophilization when initially dissolved in a 50:50 mixture of DMC:ACN.
A saturated solution of Form 1 in any of MeOH, ACN, acetone, DCM, TFE, or 1,4-dioxane is stable to evaporation over 3.5 hours at 30° C. under reduced pressure.
A saturated solution of Form 1 in any of MeOH, THF, MeOAc, Toluene, or EtOH in 1 vol % Heptane is stable after heating to 50° C., filtering the solution and rapidly cooling to 5° C.
A suspension of Form 1 in any of DMSO, n-BuOH, 2-Methoxyethanol, IPA, EtOH, Nitromethane, DMC, n-PrOH, ACN, Acetone, 2-Butanone, EtOAc, THF, EtOH in 5 vol % Toluene, MeOAc, or EtOH in 5 vol % MeOH is stable after cycling temperature between 5 and 40° C. for >48 hrs with constant stirring.
Form 1 was also stable to exposure to 75% relative humidity or to high pressure (10 kPSi).
A saturated solution of Form 1 in any of n-PrOH, ACN, Acetone, 2-Butanone, EtOAc, THF, EtOH in 5 vol % Toluene, MeOAc, or EtOH in 5 vol % MeOH at 25° C., is stable after filtering the solution and then cooling the solution to 5° C. at a rate of 1° C./min.
A saturated solution of Form 1 in any of TFE, 2-Methoxyethanol, IPA, EtOH, Heptane, 4-Methyl-2-pentanone, cyclohexane, ACN, Acetone, 2-Butanone, EtOAc, THF, or EtOH in 5 vol % Toluene is stable to evaporation over 2-28 days under ambient conditions.

SMILES: [2H]C([2H])([2H])C(c1cc2nnc(-c3cc(F)ccc3F)n2nc1OCc1ncnn1C)(C([2H])([2H])[2H])C([2H])([2H])[2H] [Form 1, 7-(tert-Butyl-d9)-3-(2,5-difluorophenyl)-6-((1-methyl-1H-1,2,4-triazol-5-yl)methoxy)-[1,2,4]triazolo[4,3-b]pyridazine]
- hygroscopicity of the crystal [1]: non-hygroscopic
- weight gained in DVS analysis [1]: < 0.25 % wt
- crystal form change on exposure to 75% relative humidity [2]: does not undergo a crystal form change
- crystal form change on exposure to 97% relative humidity [2]: partially converts to Form 2
- physical stability at ambient conditions ([2]; ambient conditions, no duration stated): physically stable
- crystal form change on exposure to elevated pressures ([2]; elevated pressures (~0.35 GPa) for 3 days): does not undergo a crystal form change
- time to recrystallize back to Form 1 after milling ([3]; after becoming amorphous by milling at -196° C. for 2.5 hours): ≤ 30 min
- solid form after milling ([3]; milled at -196° C. for 2.5 hours): becomes amorphous
- crystal form stability to exposure to water vapor ([4]; 75% relative humidity): stable
- crystal form stability to pressing ([4]; high pressure (10 kPSi)): stable
- crystal form stability to lyophilization ([4]; initially dissolved in a 50:50 mixture of DMC:ACN): stable
- crystal form stability to controlled cooling ([4]; saturated solution at 25° C. in any of n-PrOH, ACN, Acetone, 2-Butanone, EtOAc, THF, EtOH in 5 vol % Toluene, MeOAc, EtOH in 5 vol % MeOH, filtered, cooled to 5° C. at 1° C./min): stable
- crystal form stability to fast evaporation ([4]; saturated solution in any of MeOH, ACN, acetone, DCM, TFE or 1,4-dioxane, evaporation over 3.5 hours at 30° C. under reduced pressure): stable
- crystal form stability to rapid cooling ([4]; saturated solution in any of MeOH, THF, MeOAc, Toluene or EtOH in 1 vol % Heptane, heated to 50° C., filtered, rapidly cooled to 5° C.): stable
- crystal form stability to slow evaporation ([4]; saturated solution in any of TFE, 2-Methoxyethanol, IPA, EtOH, Heptane, 4-Methyl-2-pentanone, cyclohexane, ACN, Acetone, 2-Butanone, EtOAc, THF, EtOH in 5 vol % Toluene, evaporation over 2-28 days under ambient conditions): stable
- crystal form stability to slurry equilibration ([4]; suspension in any of DMSO, n-BuOH, 2-Methoxyethanol, IPA, EtOH, Nitromethane, DMC, n-PrOH, ACN, Acetone, 2-Butanone, EtOAc, THF, EtOH in 5 vol % Toluene, MeOAc, EtOH in 5 vol % MeOH, cycling 5-40° C. for >48 hrs with stirring): stable

SMILES: [2H]C([2H])([2H])C(c1cc2nnc(-c3cc(F)ccc3F)n2nc1OCc1ncnn1C)(C([2H])([2H])[2H])C([2H])([2H])[2H] [Form 3, 7-(tert-Butyl-d9)-3-(2,5-difluorophenyl)-6-((1-methyl-1H-1,2,4-triazol-5-yl)methoxy)-[1,2,4]triazolo[4,3-b]pyridazine]
- hygroscopicity of the crystal [1]: non-hygroscopic
- weight gained in DVS analysis [1]: < 0.25 % wt
- crystal form change on exposure to 97% relative humidity [2]: does not undergo a crystal form change
- time physically stable at ambient conditions ([2]; ambient conditions): at least 2 weeks

SMILES: [2H]C([2H])([2H])C(c1cc2nnc(-c3cc(F)ccc3F)n2nc1OCc1ncnn1C)(C([2H])([2H])[2H])C([2H])([2H])[2H] [Form 4, 7-(tert-Butyl-d9)-3-(2,5-difluorophenyl)-6-((1-methyl-1H-1,2,4-triazol-5-yl)methoxy)-[1,2,4]triazolo[4,3-b]pyridazine]
- crystal form change on exposure to 75% relative humidity [2]: does not undergo a crystal form change
- time physically stable at ambient conditions ([2]; ambient conditions): at least 2 weeks

Reference: US20150158870A1, “POLYMORPHS OF 7-(TERT-BUTYL-D9)-3-(2,5-DIFLUOROPHENYL)-6-((1-METHYL-1H-1,2,4-TRIAZOL-5-YL)METHOXY)-[1,2,4]TRIAZOLO[4,3-B]PYRIDAZINE” (Concert Pharmaceuticals Inc., priority 2012, published 2015)
